Laboratory results published in US20040198663A1, “Method of treating cardiac ischemia by using erythropoietin” (priority 2003, published 2004).

What was measured:
[1] = test system: hearts from normoxic infant rabbits; experiment: Isolated Langendorff-perfused heart, 30 min global no-flow ischemia and 35 min reperfusion, normoxic hearts; parameters: species or system New Zealand White rabbit; settings: for POST DRUG Coronary flow rate / POST DRUG Heart rate / POST DRUG Left ventricle developed pressure / POST DRUG Right ventricle developed pressure / REPERFUSION (35 min) Coronary flow rate / REPERFUSION (35 min) Heart rate / REPERFUSION (35 min) Left ventricle developed pressure / REPERFUSION (35 min) Right ventricle developed pressure: normoxic hearts; for REPERFUSION (35 min) Coronary flow rate / REPERFUSION (35 min) Heart rate / REPERFUSION (35 min) Left ventricle developed pressure / REPERFUSION (35 min) Right ventricle developed pressure: after 30 min ischemia
Experimental: The study was directed to determining whether erythropoietin (0.5-10.0 U/ml) confers immediate cardioprotection in infant rabbit hearts and the contribution of protein kinases, nitric oxide synthase and potassium channels to the underlying mechanism. Hearts from normoxic infant Zealand White rabbits (n=8/group) were isolated and perfused in the Langendorff mode. Biventricular function was recorded under steady-state conditions prior to 30 minutes global no flow ischemia and 35 minutes reperfusion.
(§1) Animals. Rabbits used in the study received humane care in compliance with the “Guide for the Care and Use of Laboratory Animals” formulated by the National Research Council, 1996. Infant New Zealand White rabbits were maintained for 10 days in a normoxic (SaO2>95%) or hypoxic (SaO2<85%) environment as described in Baker et al., Circulation 99:1249-54 (1999).
(§2) Isolated heart perfusion. Isolated rabbit hearts were perfused with bicarbonate buffer at constant pressure in a retrograde manner and instrumented as described in Baker et al., Circulation 99:1249-54 (1999). Protein kinase inhibitors, potassium channel blockers or nitric oxide synthase inhibitors were added to this perfusate as needed. A 3-way tap, located immediately above the site of cannulation, allowed the entire perfusate to be diverted away from the heart to produce global, no-flow ischemia. Reperfusion was achieved by repositioning of the tap to allow perfusate to be delivered to the heart. Left and right ventricular function was monitored continuously throughout each experiment as described in Baker et al., Circulation 99:1249-54 (1999). End-diastolic pressure was initially set to 3 mmHg for 2 minutes. The balloons were then progressively inflated with a microsyringe to set end-diastolic pressures to 8 mmHg for the left ventricle and 4 mmHg for the right ventricle, with developed pressure and heart rate recorded during steady-state conditions. Coronary flow rate was measured throughout the experiment by timed collections of the coronary effluent from the right side of the heart into a graduated cylinder. Coronary flow rate was expressed as milliliters per minute per gram wet weight.
(§3) Resistance to myocardial ischemia. Hearts from infant rabbits were perfused with bicarbonate buffer, and biventricular function was monitored continuously throughout each experiment as described in Rafiee et al., Circulation 106:239-45 (2002). For concentration response studies, hearts were then perfused with erythropoietin (0.5-10.0 U/ml) for 15 minutes prior to 30 minutes ischemia and 35 minutes reperfusion. For mechanism studies with protein kinase inhibitors, potassium channel blockers or nitric oxide synthase inhibitors, hearts were perfused with drugs for 15 minutes alone followed by 15 minutes in combination with erythropoietin prior to ischemia. Hearts perfused with protein kinase inhibitors or potassium channel blockers alone in the absence of erythropoietin for 30 minutes prior to ischemia served as untreated controls for these studies. Recovery of post-ischemic left and right ventricular developed pressure was expressed as a percentage of its pre-drug, pre-ischemic value.
Assessment of ventricular function. Left and right ventricular function was monitored continuously throughout each experiment as described in Rafiee et al., Circulation 106:239-45 (2002).
Hearts from New Zealand White rabbits at 9 days of age were perfused with erythropoietin at 0, 0.5, 1.0, 2.5, 5.0, and 10.0 U/ml for 15 minutes prior to 30 minutes global ischemia and 35 minutes reperfusion. Erythropoietin (1.0 U/ml) reduced coronary flow rate prior to ischemia from 7 ml/min/g to 6 ml/min/g but had no effect on heart rate (220±18 beats/min) or developed pressure in left (106±3 mm Hg) or right (42±3 mm Hg) ventricle.

[2] = test system: hearts from chronically hypoxic infant rabbits; parameters: species or system New Zealand White rabbit
Source text: as §1, §2, §3
Hearts from 10 day old chronically hypoxic rabbits were treated with erythropoietin at a concentration of 1.0 U/ml.

[3] = erythropoietin 1.0 U/ml, no effect
[4] = chronically hypoxic hearts, EPO 1.0 U/ml for 15 min
[5] = chronically hypoxic hearts, EPO 1.0 U/ml, after 30 min ischemia

“erythropoietin: Recombinant human erythropoietin, a glycoprotein hormone, obtained from Cell Science, Inc.” was tested, and the “cardioprotection after 20 minutes treatment versus 15-minute treatment” value ([1]; 1.0 U/ml for 20 minutes) was “no further increase in cardioprotection”, the “minimum treatment period needed to confer cardioprotection in both left and right ventricle” value ([1]; 1.0 U/ml prior to ischemia) was 15 min and the “protective concentrations of erythropoietin in the in vitro studies” value ([1]; 15 min prior to ischemia) was 0.5-5.0 units/ml. For the same substance, the “developed pressure in left ventricle prior to ischemia” value [1, 3] was 106±3 mm Hg, the “developed pressure in right ventricle prior to ischemia” value [1, 3] was 42±3 mm Hg and the “heart rate prior to ischemia” value [1, 3] was 220±18 beats/min. For the same substance, the “coronary flow rate prior to ischemia” value ([1]; erythropoietin 1.0 U/ml, reduced from 7 ml/min/g) was 6 mL/min/g, the “POST DRUG Coronary flow rate” value ([1]; EPO 0.5 U/ml for 15 min) was 3 ± 1 mL/min/g and the “POST DRUG Heart rate” value ([1]; EPO 0.5 U/ml for 15 min) was 196 ± 21 beats/min. For the same substance, the “POST DRUG Left ventricle developed pressure” value ([1]; EPO 0.5 U/ml for 15 min) was 102 ± 8 mmHg, the “POST DRUG Right ventricle developed pressure” value ([1]; EPO 0.5 U/ml for 15 min) was 38 ± 5 mmHg and the “REPERFUSION (35 min) Coronary flow rate” value ([1]; EPO 0.5 U/ml) was 4 ± 1 mL/min/g. The “REPERFUSION (35 min) Heart rate” value ([1]; EPO 0.5 U/ml) was 210 ± 19 beats/min, the “REPERFUSION (35 min) Left ventricle developed pressure” value ([1]; EPO 0.5 U/ml) was 67 ± 3 mmHg and the “REPERFUSION (35 min) Right ventricle developed pressure” value ([1]; EPO 0.5 U/ml) was 31 ± 4 mmHg. The “POST DRUG Coronary flow rate” value ([1]; EPO 1.0 U/ml for 15 min) was 3 ± 1 mL/min/g, the “POST DRUG Heart rate” value ([1]; EPO 1.0 U/ml for 15 min) was 199 ± 25 beats/min and the “POST DRUG Left ventricle developed pressure” value ([1]; EPO 1.0 U/ml for 15 min) was 99 ± 4 mmHg. For the same substance, the “POST DRUG Right ventricle developed pressure” value ([1]; EPO 1.0 U/ml for 15 min) was 38 ± 3 mmHg, the “REPERFUSION (35 min) Coronary flow rate” value ([1]; EPO 1.0 U/ml) was 5 ± 1 mL/min/g and the “REPERFUSION (35 min) Heart rate” value ([1]; EPO 1.0 U/ml) was 210 ± 30 beats/min. For the same substance, the “REPERFUSION (35 min) Left ventricle developed pressure” value ([1]; EPO 1.0 U/ml) was 71 ± 8 mmHg, the “REPERFUSION (35 min) Right ventricle developed pressure” value ([1]; EPO 1.0 U/ml) was 31 ± 2 mmHg and the “POST DRUG Coronary flow rate” value ([1]; EPO 2.5 U/ml for 15 min) was 4 ± 1 mL/min/g. For the same substance, the “POST DRUG Heart rate” value ([1]; EPO 2.5 U/ml for 15 min) was 210 ± 20 beats/min, the “POST DRUG Left ventricle developed pressure” value ([1]; EPO 2.5 U/ml for 15 min) was 103 ± 4 mmHg and the “POST DRUG Right ventricle developed pressure” value ([1]; EPO 2.5 U/ml for 15 min) was 41 ± 5 mmHg. For the same substance, the “REPERFUSION (35 min) Coronary flow rate” value ([1]; EPO 2.5 U/ml) was 5 ± 2 mL/min/g, the “REPERFUSION (35 min) Heart rate” value ([1]; EPO 2.5 U/ml) was 224 ± 14 beats/min and the “REPERFUSION (35 min) Left ventricle developed pressure” value ([1]; EPO 2.5 U/ml) was 64 ± 3 mmHg. The “REPERFUSION (35 min) Right ventricle developed pressure” value ([1]; EPO 2.5 U/ml) was 31 ± 3 mmHg, the “POST DRUG Coronary flow rate” value ([1]; EPO 5.0 U/ml for 15 min) was 4 ± 1 mL/min/g and the “POST DRUG Heart rate” value ([1]; EPO 5.0 U/ml for 15 min) was 221 ± 20 beats/min. For the same substance, the “POST DRUG Left ventricle developed pressure” value ([1]; EPO 5.0 U/ml for 15 min) was 102 ± 6 mmHg, the “POST DRUG Right ventricle developed pressure” value ([1]; EPO 5.0 U/ml for 15 min) was 43 ± 7 mmHg and the “REPERFUSION (35 min) Coronary flow rate” value ([1]; EPO 5.0 U/ml) was 4 ± 1 mL/min/g. The “REPERFUSION (35 min) Heart rate” value ([1]; EPO 5.0 U/ml) was 226 ± 26 beats/min, the “REPERFUSION (35 min) Left ventricle developed pressure” value ([1]; EPO 5.0 U/ml) was 64 ± 4 mmHg and the “REPERFUSION (35 min) Right ventricle developed pressure” value ([1]; EPO 5.0 U/ml) was 32 ± 5 mmHg. For the same substance, the “POST DRUG Coronary flow rate” value ([1]; EPO 10 U/ml for 15 min) was 5 ± 2 mL/min/g, the “POST DRUG Heart rate” value ([1]; EPO 10 U/ml for 15 min) was 232 ± 52 beats/min and the “POST DRUG Left ventricle developed pressure” value ([1]; EPO 10 U/ml for 15 min) was 101 ± 5 mmHg. The “POST DRUG Right ventricle developed pressure” value ([1]; EPO 10 U/ml for 15 min) was 40 ± 5 mmHg, the “REPERFUSION (35 min) Coronary flow rate” value ([1]; EPO 10 U/ml) was 5 ± 1 mL/min/g and the “REPERFUSION (35 min) Heart rate” value ([1]; EPO 10 U/ml) was 230 ± 49 beats/min. The “REPERFUSION (35 min) Left ventricle developed pressure” value ([1]; EPO 10 U/ml) was 52 ± 3 mmHg, the “REPERFUSION (35 min) Right ventricle developed pressure” value ([1]; EPO 10 U/ml) was 28 ± 4 mmHg and the “adverse effect on ischemic myocardium” value [2] was “did not appear to exert any adverse effect”. For the same substance, the “POST DRUG Coronary flow rate” value [2, 4] was 5 ± 1 mL/min/g, the “POST DRUG Heart rate” value [2, 4] was 181 ± 16 beats/min and the “POST DRUG Left ventricle developed pressure” value [2, 4] was 117 ± 15 mmHg. The “POST DRUG Right ventricle developed pressure” value [2, 4] was 46 ± 8 mmHg, the “REPERFUSION (35 min) Coronary flow rate” value [2, 5] was 6 ± 2 mL/min/g and the “REPERFUSION (35 min) Heart rate” value [2, 5] was 204 ± 25 beats/min. For the same substance, the “REPERFUSION (35 min) Left ventricle developed pressure” value [2, 5] was 77 ± 7 mmHg and the “REPERFUSION (35 min) Right ventricle developed pressure” value [2, 5] was 42 ± 6 mmHg.
